# Results reported in ChEMBL document CHEMBL3352636, “Rational design, synthesis and anti-proliferative evaluation of novel benzosuberone tethered with hydrazide-hydrazones” (2014).
# What was measured:
# Type in all cases: functional
# HeLa = assay: Growth inhibition of human HeLa cells after 48 hrs by SRB assay
# [1] = Growth inhibition of human MiaPaCa cells after 48 hrs by SRB assay; conditions: MIA PaCa-2, 48 h
# MDA-MB-231 = assay: Growth inhibition of human MDA-MB-231 cells after 48 hrs by SRB assay; conditions: MDA-MB-231, 48 h
# [2] = Growth inhibition of human IMR32 cells after 48 hrs by SRB assay; conditions: IMR-32, 48 h
Compound,GI50 (HeLa),GI50 [1],GI50 (MDA-MB-231),GI50 [2]
O=C(N/N=C\c1ccc(Cl)cc1)C1=C(Cl)c2ccccc2CCC1,2300 nM,< 10 nM,260 nM,140 nM
Cc1ccc(/C=N\NC(=O)C2=C(Cl)c3ccccc3CCC2)cc1,2300 nM,< 10 nM,260 nM,140 nM
Cc1cc2c(cc1C)C(Cl)=C(/C=N/NC(=O)c1cccc(C(F)(F)F)c1)CCC2,6800 nM,12200 nM,< 10 nM,7800 nM
COc1cc(C(=O)N/N=C/C2=C(Cl)c3ccccc3CCC2)c([N+](=O)[O-])cc1OC,1100 nM,10900 nM,> 100000 nM,2700 nM
O=C(N/N=C/C1=C(Cl)c2ccccc2CCC1)c1cccc(C(F)(F)F)c1,16300 nM,5800 nM,94300 nM,2000 nM
Nc1ccccc1C(=O)N/N=C/C1=C(Cl)c2ccccc2CCC1,> 100000 nM,65100 nM,5000 nM,51000 nM
Cc1cc2c(cc1C)C(Cl)=C(C(=O)N/N=C\C1=C(Cl)c3ccccc3CCC1)CCC2,> 100000 nM,6000 nM,7700 nM,2400 nM
O=C(N/N=C/C1=C(Cl)c2ccccc2CCC1)c1ccc([N+](=O)[O-])cc1,> 100000 nM,2300 nM,3800 nM,26000 nM
Cc1ccc(C(=O)N/N=C/C2=C(Cl)c3cc(C)c(C)cc3CCC2)cc1,> 100000 nM,28800 nM,32900 nM,100 nM
O=C(N/N=C\C1=C(Cl)c2ccccc2CCC1)C1=C(Cl)c2ccccc2CCC1,1000 nM,1600 nM,3000 nM,2200 nM
Cc1cc2c(cc1C)C(Cl)=C(/C=N/NC(=O)c1cccnc1)CCC2,650 nM,1600 nM,5400 nM,8400 nM
COc1cc(/C=N\NC(=O)C2=C(Cl)c3cc(C)c(C)cc3CCC2)cc(OC)c1OC,21000 nM,5800 nM,1200 nM,4100 nM
Cc1cc2c(cc1C)C(Cl)=C(C(=O)N/N=C\c1ccc(Cl)cc1)CCC2,1600 nM,440 nM,410 nM,18300 nM
COc1cc(C(=O)N/N=C/C2=C(Cl)c3cc(C)c(C)cc3CCC2)cc(OC)c1OC,760 nM,2300 nM,460 nM,20900 nM
COc1cccc2c1C(=O)c1c(O)c3c(c(O)c1C2=O)C[C@@](O)(C(=O)CO)C[C@@H]3O[C@H]1C[C@H](N)[C@H](O)[C@H](C)O1 [DOXORUBICIN],73 nM,97 nM,85 nM,23 nM
O=C(N/N=C/C1=C(Cl)c2ccccc2CCC1)c1cccc(I)c1,6300 nM,1600 nM,55200 nM,7600 nM
O=C(N/N=C/C1=C(Cl)c2ccccc2CCC1)c1cccc2ccccc12,4700 nM,13600 nM,12100 nM,9200 nM
COc1cccc(/C=N\NC(=O)C2=C(Cl)c3ccccc3CCC2)c1,15600 nM,< 10 nM,300 nM,< 10 nM
COc1cccc(C(=O)N/N=C/C2=C(Cl)c3ccccc3CCC2)c1C,9200 nM,700 nM,290 nM,26500 nM

Compound,GI50 (HeLa),GI50 [1],GI50 (MDA-MB-231),GI50 [2]
Cc1cc2c(cc1C)C(Cl)=C(/C=N/NC(=O)c1cccc3ccccc13)CCC2,1000 nM,4600 nM,710 nM,3900 nM
COc1cc(/C=N\NC(=O)C2=C(Cl)c3ccccc3CCC2)cc(OC)c1OC,8200 nM,1400 nM,< 10 nM,< 10 nM
Cc1cc2c(cc1C)C(Cl)=C(/C=N/NC(=O)c1cccc(Cl)c1)CCC2,770 nM,33600 nM,1930 nM,> 100000 nM
Cc1cc2c(cc1C)C(Cl)=C(/C=N\NC(=O)C1=C(Cl)c3ccccc3CCC1)CCC2,4500 nM,210 nM,3100 nM,670 nM
Cc1cc2c(cc1C)C(Cl)=C(/C=N/NC(=O)c1ccccc1N)CCC2,> 100000 nM,810 nM,3700 nM,36300 nM
O=C(N/N=C/C1=C(Cl)c2ccccc2CCC1)c1ccccc1,> 100000 nM,1000 nM,11100 nM,16100 nM
Cc1cc2c(cc1C)C(Cl)=C(C(=O)N/N=C\c1ccc(F)cc1)CCC2,2200 nM,360 nM,840 nM,3500 nM
COc1ccc(/C=N\NC(=O)C2=C(Cl)c3ccccc3CCC2)c(OC)c1,38500 nM,2700 nM,290 nM,14900 nM
CC(=O)O[C@H]1C(=O)[C@@]2(C)[C@H]([C@H](OC(=O)c3ccccc3)[C@]3(O)C[C@H](OC(=O)[C@H](O)[C@@H](NC(=O)c4ccccc4)c4ccccc4)C(C)=C1C3(C)C)[C@]1(OC(C)=O)CO[C@@H]1C[C@@H]2O [PACLITAXEL],25 nM,56 nM,91 nM,75 nM
COc1cccc(C(=O)N/N=C/C2=C(Cl)c3cc(C)c(C)cc3CCC2)c1C,300 nM,2000 nM,10000 nM,170 nM
Cc1cc2c(cc1C)C(Cl)=C(/C=N/NC(=O)c1cccc(I)c1)CCC2,> 100000 nM,4300 nM,1200 nM,1900 nM
O=C(N/N=C/C1=C(Cl)c2ccccc2CCC1)c1cccc(Cl)c1,19200 nM,78400 nM,16300 nM,27300 nM
Cc1cc2c(cc1C)C(Cl)=C(/C=N/NC(=O)c1ccccc1)CCC2,> 100000 nM,> 100000 nM,2500 nM,1800 nM
O=C(N/N=C\c1ccc(F)cc1)C1=C(Cl)c2ccccc2CCC1,1300 nM,< 10 nM,410 nM,270 nM
Cc1ccc(C(=O)N/N=C/C2=C(Cl)c3ccccc3CCC2)cc1,300 nM,10000 nM,710 nM,300 nM
Cc1cc2c(cc1C)C(Cl)=C(/C=N\NC(=O)C1=C(Cl)c3cc(C)c(C)cc3CCC1)CCC2,> 100000 nM,6000 nM,78200 nM,59900 nM
COc1cc(C(=O)N/N=C/C2=C(Cl)c3ccccc3CCC2)cc(OC)c1OC,770 nM,69300 nM,30000 nM,75600 nM
COc1cc(C(=O)N/N=C/C2=C(Cl)c3cc(C)c(C)cc3CCC2)c([N+](=O)[O-])cc1OC,2000 nM,1600 nM,220 nM,13800 nM
O=C(N/N=C/C1=C(Cl)c2ccccc2CCC1)c1cccnc1,7500 nM,11700 nM,91700 nM,150 nM
